Data published in ChEMBL document CHEMBL5260853, “Small Molecules Targeting Activated Cdc42-Associated Kinase 1 (ACK1/TNK2) for the Treatment of Cancers” (J Med Chem, 2021).

How the values were obtained:
[1] = Inhibition of ACK1 D163E mutant in mouse BaF3 cells; type: cell-based
[2] = Inhibition of ACK1 R806Q mutant in mouse BaF3 cells; type: cell-based
Activated CDC42 kinase 1 [3] = target: T1, Activated CDC42 kinase 1 (Homo sapiens, UniProt Q07912); assay: Inhibition of ACK1 (unknown origin) at 10 uM relative to control
Target sequence in this assay (Q07912 whole entry, looked up): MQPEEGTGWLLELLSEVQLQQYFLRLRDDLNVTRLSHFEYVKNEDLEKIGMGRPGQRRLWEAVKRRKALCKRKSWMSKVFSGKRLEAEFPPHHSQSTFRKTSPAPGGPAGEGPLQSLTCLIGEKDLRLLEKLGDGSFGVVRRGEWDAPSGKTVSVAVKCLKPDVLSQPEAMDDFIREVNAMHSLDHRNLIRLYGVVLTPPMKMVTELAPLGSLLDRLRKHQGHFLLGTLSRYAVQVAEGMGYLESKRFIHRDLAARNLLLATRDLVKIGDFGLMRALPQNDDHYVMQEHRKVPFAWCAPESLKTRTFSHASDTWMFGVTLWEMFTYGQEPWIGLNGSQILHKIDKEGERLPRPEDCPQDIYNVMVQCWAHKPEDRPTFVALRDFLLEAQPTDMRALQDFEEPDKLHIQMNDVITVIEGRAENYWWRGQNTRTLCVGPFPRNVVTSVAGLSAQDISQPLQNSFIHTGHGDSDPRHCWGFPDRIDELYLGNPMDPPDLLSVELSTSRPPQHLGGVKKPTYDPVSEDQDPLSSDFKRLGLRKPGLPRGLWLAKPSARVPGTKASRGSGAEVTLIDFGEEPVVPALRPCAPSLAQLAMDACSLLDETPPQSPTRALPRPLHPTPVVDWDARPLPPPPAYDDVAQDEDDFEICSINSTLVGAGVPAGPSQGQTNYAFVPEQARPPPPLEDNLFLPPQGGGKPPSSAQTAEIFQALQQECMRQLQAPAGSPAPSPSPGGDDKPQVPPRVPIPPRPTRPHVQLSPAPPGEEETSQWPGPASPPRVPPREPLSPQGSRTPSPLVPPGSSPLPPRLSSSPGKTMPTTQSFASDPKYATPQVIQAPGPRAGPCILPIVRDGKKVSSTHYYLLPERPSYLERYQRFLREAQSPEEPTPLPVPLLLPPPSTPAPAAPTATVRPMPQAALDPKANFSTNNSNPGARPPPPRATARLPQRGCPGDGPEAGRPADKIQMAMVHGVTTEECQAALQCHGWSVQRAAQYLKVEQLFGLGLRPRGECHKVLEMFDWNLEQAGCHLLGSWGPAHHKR

Activated CDC42 kinase 1 [4] = target: T1, Activated CDC42 kinase 1; assay: Inhibition of ACK1 (unknown origin)
Target sequence in this assay (Q07912 whole entry): as the sequence (Q07912 whole entry, looked up) above

MDA-MB-157 = assay: Antiproliferative activity against human MDA-MB-157 cells treated for 96 hrs by trypan blue exclusion assay; type: functional, cell-based; conditions: MDA-MB-157, 96 h

| IC50 [1] [nM] | IC50 [2] [nM] | inhibition (Activated CDC42 kinase 1 [3]) [%] | IC50 (Activated CDC42 kinase 1 [4]) [nM] | Compound | further results |
| --- | --- | --- | --- | --- | --- |
| 16 | 77 | – | – | CN1c2ccccc2C(=O)Nc2cnc(Nc3ccc(N4CCC(O)CC4)cc3)nc21 | – |
| – | – | 33 | – | CCN(CC)CCNC(=O)c1c(C)[nH]c(/C=C2\C(=O)Nc3ccc(F)cc32)c1C | – |
| – | – | 77 | – | COc1cc2ncnc(Nc3ccc(F)c(Cl)c3)c2cc1OCCCN1CCOCC1 | – |
| – | – | – | 33.6 | Cc1cc(Nc2ncc(Cl)c(Nc3ccccc3S(=O)(=O)C(C)C)n2)c(OC(C)C)cc1C1CCNCC1 [CERITINIB] | – |
| 38 | 113 | – | – | COc1cc(N2CCN(C)CC2)ccc1Nc1ncc2c(n1)N(C)c1ccccc1C(=O)N2 | – |
| – | – | 74 | < 20000 | CN1CC[C@H](c2c(O)cc(O)c3c(=O)cc(-c4ccccc4Cl)oc23)[C@H](O)C1 [ALVOCIDIB] | – |
| – | – | – | – | CN1CCN(c2ccc(Nc3ncc(Cl)c(NC[C@H]4CCCO4)n3)cc2)CC1 | IC50 (MDA-MB-157): 480 nM |
| – | – | – | 200 | CNc1cc2c(Nc3cccc(Br)c3)ncnc2cn1 | – |
| 0.1 | 1.3 | – | – | Cc1nc(Nc2ncc(C(=O)Nc3c(C)cccc3Cl)s2)cc(N2CCN(CCO)CC2)n1 [DASATINIB] | – |

| Compound | IC50 [1] [nM] | IC50 [2] [nM] | inhibition (Activated CDC42 kinase 1 [3]) [%] | IC50 (Activated CDC42 kinase 1 [4]) [nM] | further results |
| --- | --- | --- | --- | --- | --- |
| C=CC(=O)Nc1cc(Nc2nccc(-c3cn(C)c4ccccc34)n2)c(OC)cc1N(C)CCN(C)C [OSIMERTINIB] | – | – | – | 71 | – |
